Measurements from ChEMBL document CHEMBL6096638, “Design, synthesis and biological evaluation of novel TMPRSS2-PROTACs with florosubstituted 4-guanidino-N-phenylbenzamide derivative ligands” (Bioorg Med Chem, 2024).
Active and inactive are the calls of the source. The calls are words filed in the database; no cut-off is given here.

Legend:
Type in all cases: functional
Calu-3 = assay: Antiproliferative activity against human Calu-3 cells assessed as inhibition of cell growth at 20 uM incubated for 48 hrs by CCK-8 assay relative to control
HT-29 = assay: Antiproliferative activity against human HT-29 cells assessed as inhibition of cell growth at 20 uM incubated for 48 hrs by CCK-8 assay relative to control
DU-145 = assay: Antiproliferative activity against human DU-145 cells assessed as inhibition of cell growth at 20 uM incubated for 48 hrs by CCK-8 assay relative to control

SMILES | inhibition at 20 µM (Calu-3) [%] | inhibition at 20 µM (HT-29) [%] | inhibition at 20 µM (DU-145) [%] | inhibition (Calu-3) | inhibition (DU-145)
COc1cc(C(=O)Nc2ccc(CC(=O)Nc3ccc(N4CCN(CC5CCN(CC(=O)N[C@H](C(=O)N6C[C@H](O)C[C@H]6C(=O)NCc6ccc(-c7scnc7C)cc6)C(C)(C)C)CC5)CC4)cc3)cc2)ccc1NC(=N)N | 5.66 | 18.4 | 5.06 | – | –
Cc1ncsc1-c1ccc(CNC(=O)[C@@H]2C[C@@H](O)CN2C(=O)[C@@H](NC(=O)CN2CCC(CN3CCN(c4ccc(NC(=O)c5ccc(NC(=N)N)cc5)cc4)CC3)CC2)C(C)(C)C)cc1 | – | 35.5 | 6.8 | inactive | –
Cc1ncsc1-c1ccc(CNC(=O)[C@@H]2C[C@@H](O)CN2C(=O)[C@@H](NC(=O)CN2CCC(CN3CCN(c4ccc(NC(=O)Cc5ccc(NC(=O)c6ccc(NC(=N)N)cc6)cc5)cc4)CC3)CC2)C(C)(C)C)cc1 | – | 25.9 | 5.63 | inactive | –
Cc1ncsc1-c1ccc(CNC(=O)[C@@H]2C[C@@H](O)CN2C(=O)[C@@H](NC(=O)CN2CCC(CN3CCN(c4ccc(NC(=O)Cc5ccc(NC(=O)c6ccc(NC(=N)N)cc6F)cc5)cc4)CC3)CC2)C(C)(C)C)cc1 | – | 37.3 | 5.64 | inactive | –
COc1cc(C(=O)Nc2ccc(CC(=O)Nc3ccc(CC(=O)NCCCCCCNc4cccc5c4C(=O)N(C4CCC(=O)NC4=O)C5=O)cc3)cc2)ccc1NC(=N)N (configuration not stated) | – | 32.7 | 16.5 | inactive | –
Cc1ncsc1-c1ccc(CNC(=O)[C@@H]2C[C@@H](O)CN2C(=O)[C@@H](NC(=O)CN2CCN(c3ccc(NC(=O)c4ccc(NC(=N)N)cc4F)cc3)CC2)C(C)(C)C)cc1 | 10.3 | 34.4 | 14.4 | – | –
COc1cc(C(=O)Nc2ccc(CC(=O)NCCCCCC(=O)N3CCN(c4ccc5c(c4)C(=O)N(C4CCC(=O)NC4=O)C5=O)CC3)cc2)ccc1NC(=N)N (configuration not stated) | – | 7.56 | 7.04 | inactive | –
Cc1ncsc1-c1ccc(CNC(=O)[C@@H]2C[C@@H](O)CN2C(=O)[C@@H](NC(=O)CN2CCN(c3ccc(NC(=O)c4ccc(NC(=N)N)cc4)cc3)CC2)C(C)(C)C)cc1 | – | 29.7 | 9.51 | inactive | –
Cc1ncsc1-c1ccc(CNC(=O)[C@@H]2C[C@@H](O)CN2C(=O)[C@@H](NC(=O)OCCOCCOCCOCc2cccc(NC(=O)c3ccc(NC(=N)N)cc3)c2)C(C)(C)C)cc1 | – | 15.1 | 13.7 | inactive | –
Cc1ncsc1-c1ccc(CNC(=O)[C@@H]2C[C@@H](O)CN2C(=O)[C@@H](NC(=O)COCCOCCOCCN2CCN(c3cccc(NC(=O)c4ccc(NC(=N)N)cc4)c3)CC2)C(C)(C)C)cc1 | – | 23.8 | 15.3 | inactive | –
COc1cc(C(=O)Nc2ccc(N3CCN(CC(=O)N[C@H](C(=O)N4C[C@H](O)C[C@H]4C(=O)NCc4ccc(-c5scnc5C)cc4)C(C)(C)C)CC3)cc2)ccc1NC(=N)N | – | 30.7 | 6.76 | inactive | –
Cc1ncsc1-c1ccc(CNC(=O)[C@@H]2C[C@@H](O)CN2C(=O)[C@@H](NC(=O)COCCOCCOCCN2CCN(c3ccc(NC(=O)c4ccc(NC(=N)N)cc4)cc3)CC2)C(C)(C)C)cc1 | – | 14.4 | – | inactive | inactive
N=C(N)Nc1ccc(C(=O)Nc2ccc(CC(=O)NCCCCCC(=O)N3CCN(c4ccc5c(c4)C(=O)N(C4CCC(=O)NC4=O)C5=O)CC3)cc2)cc1 (configuration not stated) | – | 22.4 | 5.82 | inactive | –
COc1cc(C(=O)Nc2ccc(N3CCN(CC4CCN(CC(=O)N[C@H](C(=O)N5C[C@H](O)C[C@H]5C(=O)NCc5ccc(-c6scnc6C)cc5)C(C)(C)C)CC4)CC3)cc2)ccc1NC(=N)N | – | 42.3 | – | inactive | inactive
